# Entries after “also recorded” stand apart in the source; their conditions may differ.
# Assays:
# [1] = tested on: lymphoma-induced chronic itch; assay: Mouse CTCL xenograft model of chronic itch; format: in vivo
# Experimental: We used a murine xenograft model of cutaneous T cell lymphoma (CTCL) using immune-deficient mice (NOD.CB17-Prkdcscid, 8-10 weeks old, male). CD4+ MyLa cell line was purchased from Sigma (Catalog #95051032). The cell line was established from a plaque biopsy of a person with mycosis fungoides stage II by inclusion of IL-2 and IL-4 in the culture medium. CTCL was generated via intradermal injection of CD4+ Myla cells (1×10^5 cells/μL, 100 μL) on the nape of the neck. Itch behavior was tested on Day 50 after inoculation of CTCL cells.
# [2] = tested on: paclitaxel-induced mechanical allodynia; assay: Paclitaxel-induced neuropathic pain model (von Frey); format: in vivo, mouse; details: for effect on paclitaxel-induced mechanical allodynia: mice
# Experimental: Intraperitoneal injection of paclitaxel (PTX, 2 mg/kg for multiple injections at day 0, 2, 4, and 6) was given to generate chemotherapy-associated neuropathic pain. Neuropathic pain behavior was tested 3 weeks after PTX injection using a von Frey test. Briefly, animals were habituated to the testing environment daily for at least 2 days before the baseline testing. Animals were confined in boxes placed on an elevated metal mesh floor and the hind paws were stimulated with a series of von Frey hairs with logarithmically increasing stiffness (0.02-2.56 g, Stoelting), presented perpendicularly to the central plantar surface. The 50% paw withdrawal threshold was determined by an up-down method.
# [3] = tested on: histamine-induced acute itch; assay: Histamine-induced itch model; format: in vivo, mouse; details: listed as DA-0218
# Experimental: Itch behavior was tested blindly. Mice were habituated to the testing environment daily for at least two days before testing. Animals were shaved at the back of the neck in an area of approximately 15×10 mm on the day before the injection of pruritic agent. Animals were put in small plastic chambers (14×18×12 cm) on an elevated metal mesh floor and allowed 30 min for habituation before examination. Mice were then briefly removed from the chamber and given an intradermal injection (50 μL) of 500 μg of histamine in the nape of the neck. After the injection, mouse behaviors were video-recorded and the number of scratches in every 5 min for 30 min was counted. A scratch was counted when a mouse lifted its hindpaw to scratch the shaved region and returned the paw to the floor or to the mouth.
smiles,measurement,setting,value
"O=C(CC(c1cccc(Oc2ccccc2)c1)c1cn(Cc2ccccc2)c2ccccc12)NCCN1CCCC1 (centres unmarked) [Compound 9, 3-(1-benzyl-1H-indol-3-yl)-3-(3-phenoxyphenyl)-N-(2-(pyrrolidin-1-yl)ethyl)propanamide]","effect duration, chronic itch",[1]; intrathecal,> 5 h
same,effect on lymphoma-induced chronic itch (scratch),"[1]; intrathecal 30 nmol, Day 50 after CTCL inoculation, listed as DA-0218",inhibited; also recorded: significant reduction of scratch; also recorded: effective against lymphoma-induced itch
same,effect on paclitaxel-induced mechanical allodynia,"[2]; intraperitoneal 30 mg/kg, listed as DA-0218",no effect on allodynia; also recorded: did not produce any anti-allodynia effects
same,"effect duration, chronic pain","[2]; intrathecal, paclitaxel model",3 h
same,effect on paclitaxel-induced mechanical allodynia,"[2]; intrathecal, single injection, listed as DA-0218",acute reduction; also recorded: transiently but completely reversed; also recorded: statistically significant anti-allodynia effects
same,analgesic effect after repeated intrathecal injections (2nd and 3rd injection),"[2]; tested one hour after each injection, paclitaxel model, listed as DA-0218",did not produce any analgesic effect; also recorded: induced acute tolerance
same,effect on histamine-induced scratches,"[3]; intrathecal 30 nmol, 500 μg histamine intradermal, 30 min",statistically significant reduction; also recorded: effective against histamine-induced itch
same,effect on histamine-induced scratch bouts,"[3]; intrathecal, dose response",inhibited histamine-induced acute itch; also recorded: dose-dependent reduction

# Reference: US12533341B2, “Small molecule inhibitors of voltage-gated sodium channel 1.7 and methods of using same” (Duke University, priority 2019, dated 2026)
